# Results from patent US9302999B2, “Substituted triazoles as herbicides” (E. I. DU PONT DE NEMOURS AND COMPANY, priority 2012, dated 2016).
# Where two headings read alike, the source gives them in different places.
# What was measured:
# Type in all cases: in vivo
# [1] = system: foxtail, giant (giant foxtail, Setaria faberii); assay: Test A pre-/postemergence: foxtail, giant; conditions: Setaria faberi, 240 h; for pest or weed control at 125 g/ha: 125 g ai/ha; for pest or weed control at 500 g/ha: 500 g ai/ha
# Outline: (§1)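 Visual 0–100 injury ratings (0 no effect, 100 complete control) taken about ten days after treatment, relative to untreated controls. Preemergence treatment was a directed soil spray; postemergence plants were 2–10 cm tall at one- to two-leaf stage. Soil: loam/sand blend.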
# [2] = system: morningglory (Ipomoea spp.); assay: Test A pre-/postemergence: morningglory; conditions: Ipomoea, 240 h; for pest or weed control at 125 g/ha: 125 g ai/ha; for pest or weed control at 500 g/ha: 500 g ai/ha
# Outline: as §1
# corn (Zea mays) = assay: Test A pre-/postemergence: corn; conditions: Zea mays, 240 h
# Outline: as §1
# [3] = system: ryegrass, Italian (Italian ryegrass, Lolium multiflorum); assay: Test C pre-/postemergence: ryegrass, Italian
# Outline: (§2)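 Preemergence on seeds in loam/sand, postemergence on 2–18 cm (1–4-leaf) plants in peat-based medium; compounds in non-phytotoxic solvent with surfactant. After 13–15 days in greenhouse, visual rating versus controls, 0 (no effect) to 100 (complete control).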
# [4] = system: johnsongrass (Sorghum halepense); assay: Test C pre-/postemergence: johnsongrass
# Outline: as §2
# kochia (Kochia scoparia) = assay: Test C pre-/postemergence: kochia
# Outline: as §2
# [5] = system: ragweed (common ragweed, Ambrosia elation); assay: Test C pre-/postemergence: ragweed; conditions: Postemergence
# Outline: as §2
# soybean (Glycine max) = assay: Test C pre-/postemergence: soybean
# Outline: as §2
# [6] = system: chickweed (common chickweed, Stellaria media); assay: Test C postemergence: chickweed
# Outline: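 Greenhouse pot test; foliar postemergence treatment at 1- to 4-leaf stage. Rated visually at 13 to 15 days on a 0–100 control scale relative to untreated plants.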
# [7] = Postemergence, 16 g ai/ha, scale 0 to 100, 0 no effect, 100 complete control
# [8] = Postemergence, 31 g ai/ha, scale 0 to 100 (0 no effect, 100 complete control)
# [9] = Postemergence, 62 g ai/ha, scale 0 to 100 (0 no effect, 100 complete control)
# [10] = Postemergence, 125 g ai/ha, scale 0 to 100, 0 no effect, 100 complete control
# [11] = Preemergence, 16 g ai/ha, scale 0 (no effect) to 100 (complete control)
# [12] = Preemergence, 31 g ai/ha, scale of 0 to 100, 0 is no effect, 100 is complete control
# [13] = Preemergence, 62 g ai/ha, scale of 0 to 100, 0 is no effect, 100 is complete control
# [14] = Preemergence, 125 g ai/ha, scale 0 to 100, 0 no effect, 100 complete control
# [15] = 16 g ai/ha, scale 0 to 100, 0 no effect, 100 complete control
# [16] = 31 g ai/ha, scale 0 to 100 (0 no effect, 100 complete control)
# [17] = 62 g ai/ha, scale 0 to 100 (0 no effect, 100 complete control)
# [18] = 125 g ai/ha, scale 0 to 100, 0 no effect, 100 complete control
compound,measurement,setting,value
"COc1nn(-c2ccc(C(F)(F)F)cc2)nc1Cc1ccnc(C(F)(F)F)c1 [Compound 15, 4-[[5-methoxy-2-[4-(trifluoromethyl)phenyl]-2H-1,2,3-triazol-4-yl]methyl]-2-(trifluoromethyl)pyridine]",pest or weed control at 125 g/ha,"[1]; post-emergence, Postemergence, 0 to 100 scale, 0 is no effect, 100 is complete control, read-out: Foxtail, Giant plant response rating",90%
same,pest or weed control at 500 g/ha,"[1]; post-emergence, Postemergence, visual rating on 0 to 100 scale (0 no effect, 100 complete control), approximately ten days, read-out: Foxtail, Giant plant response rating",90%
same,pest or weed control at 125 g/ha,"[1]; pre-emergence, Preemergence, 0 to 100 scale (0 no effect, 100 complete control), read-out: Plant response rating, Foxtail, Giant",100%
same,pest or weed control at 500 g/ha,"[1]; pre-emergence, Preemergence, 0 to 100 scale, 0 is no effect, 100 is complete control, read-out: Plant response rating, Foxtail, Giant",100%
same,pest or weed control at 125 g/ha,"[2]; post-emergence, Postemergence, 0 to 100 scale, 0 is no effect, 100 is complete control, read-out: Morningglory plant response rating",100%
same,pest or weed control at 500 g/ha,"[2]; post-emergence, Postemergence, visual rating on 0 to 100 scale (0 no effect, 100 complete control), approximately ten days, read-out: Morningglory plant response rating",100%
same,pest or weed control at 125 g/ha,"[2]; pre-emergence, Preemergence, 0 to 100 scale (0 no effect, 100 complete control), read-out: Plant response rating, Morningglory",60%
same,pest or weed control at 500 g/ha,"[2]; pre-emergence, Preemergence, 0 to 100 scale, 0 is no effect, 100 is complete control, read-out: Plant response rating, Morningglory",80%
same,plant injury at 125 g/ha,"corn (Zea mays); post-emergence, Postemergence, 125 g ai/ha, 0 to 100 scale, 0 is no effect, 100 is complete control, read-out: Corn plant response rating",30%
same,plant injury at 500 g/ha,"corn (Zea mays); post-emergence, Postemergence, 500 g ai/ha, visual rating on 0 to 100 scale (0 no effect, 100 complete control), approximately ten days, read-out: Corn plant response rating",50%
same,"Corn plant response rating (crop injury, 0 = no effect, 100 = complete kill) at 125 g/ha","corn (Zea mays); pre-emergence, Preemergence, 125 g ai/ha, 0 to 100 scale (0 no effect, 100 complete control)",20%
same,"Corn plant response rating (crop injury, 0 = no effect, 100 = complete kill) at 500 g/ha","corn (Zea mays); pre-emergence, Preemergence, 500 g ai/ha, 0 to 100 scale, 0 is no effect, 100 is complete control",50%
same,"Plant response rating, Ryegrass, Italian",[3]; [7],10
same,"Plant response rating, Ryegrass, Italian",[3]; [8],30
same,"Plant response rating, Ryegrass, Italian",[3]; [9],45
same,"Plant response rating, Ryegrass, Italian",[3]; [10],60
same,"Plant response rating, Ryegrass, Italian",[3]; [11],10
same,"Plant response rating, Ryegrass, Italian",[3]; [12],40
same,"Plant response rating, Ryegrass, Italian",[3]; [13],45
same,"Plant response rating, Ryegrass, Italian",[3]; [14],80
same,"Plant response rating, Johnsongrass",[4]; [7],0
same,"Plant response rating, Johnsongrass",[4]; [8],45
same,"Plant response rating, Johnsongrass",[4]; [9],60
same,"Plant response rating, Johnsongrass",[4]; [10],80
same,"Plant response rating, Johnsongrass",[4]; [11],15
same,"Plant response rating, Johnsongrass",[4]; [12],55
same,"Plant response rating, Johnsongrass",[4]; [13],85
same,"Plant response rating, Johnsongrass",[4]; [14],90
same,"Plant response rating, Kochia",kochia (Kochia scoparia); [7],90
same,"Plant response rating, Kochia",kochia (Kochia scoparia); [8],95
same,"Plant response rating, Kochia",kochia (Kochia scoparia); [9],95
same,"Plant response rating, Kochia",kochia (Kochia scoparia); [10],95
same,"Plant response rating, Kochia",kochia (Kochia scoparia); [11],0
same,"Plant response rating, Kochia",kochia (Kochia scoparia); [12],70
same,"Plant response rating, Kochia",kochia (Kochia scoparia); [13],70
same,"Plant response rating, Kochia",kochia (Kochia scoparia); [14],85
same,"Plant response rating, Ragweed",[5]; [15],45
same,"Plant response rating, Ragweed",[5]; [16],60
same,"Plant response rating, Ragweed",[5]; [17],60
same,"Plant response rating, Ragweed",[5]; [18],70
same,"Plant response rating, Soybean",soybean (Glycine max); [7],10
same,"Plant response rating, Soybean",soybean (Glycine max); [8],10
same,"Plant response rating, Soybean",soybean (Glycine max); [9],35
same,"Plant response rating, Soybean",soybean (Glycine max); [10],45
same,"Plant response rating, Soybean",soybean (Glycine max); [11],0
same,"Plant response rating, Soybean",soybean (Glycine max); [12],0
same,"Plant response rating, Soybean",soybean (Glycine max); [13],0
same,"Plant response rating, Soybean",soybean (Glycine max); [14],25
same,"Plant response rating, Chickweed",[6]; [15],55
same,"Plant response rating, Chickweed",[6]; [16],55
same,"Plant response rating, Chickweed",[6]; [17],70
same,"Plant response rating, Chickweed",[6]; [18],75
